Common to all, as to assay type: physicochemical
The nature of data set [1]: Slurry experiment (polymorph obtained, XRPD). The note with it: for Mod. obtained: 8 days. How it is done: Compound of formula (I) was suspended in the respective solvent and stirred at 0° C., 40° C. (Mya4 stirrer station at 250 u/min) and 80° C. After three to eight days, an additional amount of solvent was added to the suspensions. In two experiments additional substance were added after four days. After eight days the suspensions were dried at ambient conditions.
The obtained crystals were isolated and analyzed by X-ray powder diffraction (XRPD) spectrometry, DSC and TGA.

A short description of data set [2]: Transition temperature between polymorphic forms A and B (temperature-depending XRPD). The conditions noted are these: for phase change temperature: temperature-depending XRPD. How it is done:
To obtain crystals of polymorphic form A, a temperature-depending X-ray powder diffraction (XRPD) experiment was performed, in which recrystallization was allowed at different temperatures.

Data set [3] is described as follows: Measurement of Log P values by HPLC on reversed phase columns (EEC directive 79/831 Annex V.A8). The note with it: reversed phase HPLC column, acidic range, 0.1% formic acid in water and acetonitrile. How it is done: Measurement of Log P values Measurement of Log P values as provided herein was performed according to EEC directive 79/831 Annex V.A8 by HPLC (High Performance Liquid Chromatography) on reversed phase columns with method determined by measurement of LC-UV, in an acidic range, with 0.1% formic acid in water and acetonitrile as eluent (linear gradient from 10% acetonitrile to 95% acetonitrile). Calibration was done with straight-chain alkan2-ones (with 3 to 16 carbon atoms) with known Log P values (measurement of Log P values using retention times with linear interpolation between successive alkanones). Lambda-max-values were determined using UV-spectra from 200 nm to 400 nm and the peak values of the chromatographic signals

The structures appear in SMILES notation.

For the compound `Cc1ccc(C[C@H]2CON=C(c3cc(C)nnc3Oc3cccc(Cl)c3F)N2)c(Cl)c1` [polymorphic form B, (5S)-3-[3-(3-chloro-2-fluorophenoxy)-6-methylpyridazin-4-yl]-5-(2-chloro-4-methylbenzyl)-5,6-dihydro-4H-1,2,4-oxadiazine], the Mod. obtained entry is reported as “Mod. B” in data set [1] (Exp. No. 1: Mod. B used, CH3CN, 0 °C); “Mod. B” in data set [1] (Exp. No. 2: Mod. B used, CH3CN, 40 °C); “Mod. B” in data set [1] (Exp. No. 3: Mod. B used, CH3CN/water, 80 °C); “Mod. B” in data set [1] (Exp. No. 4: Mod. B used, Ethanol/water (1:1), 0 °C); “Mod. B” in data set [1] (Exp. No. 5: Mod. B used, Ethanol/water (1:1), 40 °C); “Mod. B” in data set [1] (Exp. No. 6: Mod. B used, Ethanol/water (1:1), 80 °C). Besides, the “stability in slurry experiments: recrystallization events” value in data set [1] (above the transition temperature range over an extended period of time) is recorded as “No recrystallization events were observed”. Further, the thermodynamic stability entry in data set [2] (below the transition temperatures (49° C. to 66° C.)) was “thermodynamically stable polymorph”.
The chromatographic logP is lipophilicity estimated from chromatographic retention. Take `Cc1ccc(C[C@H]2CON=C(c3cc(C)nnc3Oc3cccc(Cl)c3F)N2)c(Cl)c1` [compound of formula (I), (5S)-3-[3-(3-chloro-2-fluorophenoxy)-6-methylpyridazin-4-yl]-5-(2-chloro-4-methylbenzyl)-5,6-dihydro-4H-1,2,4-oxadiazine]: the chromatographic logP in data set [3] was 3.88.
Take `Cc1ccc(C[C@H]2CON=C(c3cc(C)nnc3Oc3cccc(Cl)c3F)N2)c(Cl)c1` [polymorphic form A, (5S)-3-[3-(3-chloro-2-fluorophenoxy)-6-methylpyridazin-4-yl]-5-(2-chloro-4-methylbenzyl)-5,6-dihydro-4H-1,2,4-oxadiazine]: the thermodynamic stability entry in data set [2] (at lower temperatures) is given as “very fast transition to polymorphic form B”. Besides, the phase change temperature in data set [2] (on cooling) amounted to 40 °C; in data set [2] (on heating), 60 °C.

These data come from patent publication US20250304566A1, “CRYSTALLINE FORMS OF (5S)-3-[3-(3-CHLORO-2-FLUOROPHENOXY)-6-METHYLPYRIDAZIN-4-YL]-5-(2-CHLORO-4-METHYLBENZYL)-5,6-DIHYDRO-4H-1,2,4-OXADIAZINE” (priority 2022, published 2025).
